# Results taken from PubChem BioAssay AID330 (DTP/NCI, 2004).
# “And” between values parts separate entries of the source, which are not always exact repeats. Equal entries are not always repeated. Toxic doses and inconclusive results are not listed.
# Tested on: P388 leukemia ip, CD2F1 mice, survival T/C
# Assay: NCI In Vivo Anticancer Drug Screen. Data for tumor model P388 Leukemia (intraperitoneal) in CD2F1 (CDF1) mice
# Conditions: endpoint: median survival time, higher = longer survival
# Procedure, shortened: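 Mice carrying the transplanted tumor received test compound or vehicle. Survival was recorded in each group, and the value is the treated-group measurement divided by that of the vehicle-treated control group.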
# [1] = dose: 25.0 mg/kg/injection, schedule: Q01DX009 (ip), vehicle: saline
# [2] = dose: 50.0 mg/kg/injection, schedule: Q01DX009 (ip), vehicle: saline
# [3] = dose: 100.0 mg/kg/injection, schedule: Q04DX003 (ip), vehicle: saline with Tween-80
# [4] = dose: 50.0 mg/kg/injection, schedule: Q01DX005 (ip), vehicle: saline with Tween-80
# [5] = dose: 100.0 mg/kg/injection, schedule: Q01DX005 (ip), vehicle: saline with Tween-80
# [6] = dose: 50.0 mg/kg/injection, schedule: Q01DX005 (ip), vehicle: Klucel (hydroxypropylcellulose) (HPC)
# [7] = dose: 100.0 mg/kg/injection, schedule: Q01DX005 (ip), vehicle: Klucel (hydroxypropylcellulose) (HPC)
# [8] = dose: 200.0 mg/kg/injection, schedule: Q01DX005 (ip), vehicle: Klucel (hydroxypropylcellulose) (HPC)
# [9] = dose: 60.0 mg/kg/injection, schedule: Q01DX005 (ip), vehicle: saline
# [10] = dose: 120.0 mg/kg/injection, schedule: Q01DX005 (ip), vehicle: saline
# [11] = dose: 240.0 mg/kg/injection, schedule: Q01DX005 (ip), vehicle: saline
# [12] = dose: 200.0 mg/kg/injection, schedule: Q01DX005 (ip), vehicle: saline with Tween-80
# [13] = dose: 25.0 mg/kg/injection, schedule: Q01DX005 (ip), vehicle: Klucel (hydroxypropylcellulose) (HPC)
# [14] = dose: 60.0 mg/kg/injection, schedule: Q01DX005 (ip), vehicle: saline with Tween-80
# [15] = dose: 120.0 mg/kg/injection, schedule: Q01DX005 (ip), vehicle: saline with Tween-80
# [16] = dose: 240.0 mg/kg/injection, schedule: Q01DX005 (ip), vehicle: saline with Tween-80
smiles,measurement,setting,value
CCc1c2cc(OC)c(OC)cc2cc2c3cc(OC)c(OC)cc3cc[n+]12 (tested in a mixture with another compound),T/C,"dose: 8.8 mg/kg/injection, schedule: Q04DX003 (ip), vehicle: saline",108 % of control
same,T/C,"dose: 20.0 mg/kg/injection, schedule: Q04DX003 (ip), vehicle: saline",122 % of control
same,T/C,[1],151 % of control
same,T/C,"dose: 29.3 mg/kg/injection, schedule: Q01DX009 (ip), vehicle: saline with Tween-80",153 % of control
same,T/C,"dose: 37.5 mg/kg/injection, schedule: Q01DX009 (ip), vehicle: saline with Tween-80",167 % of control
same,T/C,"dose: 44.0 mg/kg/injection, schedule: Q01DX009 (ip), vehicle: saline with Tween-80",170 % of control
same,T/C,[2],178 % of control
same,T/C,"dose: 66.0 mg/kg/injection, schedule: Q01DX009 (ip), vehicle: saline with Tween-80",201 % of control
same,T/C,"dose: 75.0 mg/kg/injection, schedule: Q01DX009 (ip), vehicle: saline with Tween-80",208 % of control
same,T/C,"dose: 88.0 mg/kg/injection, schedule: Q04DX003 (ip), vehicle: saline",150 % of control
same,T/C,[3],154 % of control
same,T/C,"dose: 150.0 mg/kg/injection, schedule: Q01DX009 (ip), vehicle: saline with Tween-80",234 % of control
same,T/C,"dose: 150.0 mg/kg/injection, schedule: Q01DX009 (ip), vehicle: saline",244 % of control and 92 % of control
same,T/C,"dose: 200.0 mg/kg/injection, schedule: Q01DX009 (ip), vehicle: saline",171 % of control
same,T/C,"dose: 200.0 mg/kg/injection, schedule: Q04DX003 (ip), vehicle: saline with Tween-80",181 % of control
same,T/C,"dose: 200.0 mg/kg/injection, schedule: Q04DX003 (ip), vehicle: saline",150 % of control and 191 % of control
same,T/C,"dose: 225.0 mg/kg/injection, schedule: Q01DX009 (ip), vehicle: saline",218 % of control
same,T/C,"dose: 300.0 mg/kg/injection, schedule: Q04DX003 (ip), vehicle: saline",195 % of control
same,T/C,"dose: 400.0 mg/kg/injection, schedule: Q04DX003 (ip), vehicle: saline with Tween-80",90 % of control
same,T/C,"dose: 400.0 mg/kg/injection, schedule: Q04DX003 (ip), vehicle: saline",104 % of control
Nc1ncnc2nc(N=Nc3c(O)ccc4ccccc34)[nH]c12,T/C,[4],104 % of control
same,T/C,[5],93 % of control
CN1CCCN(C)C1c1ccccc1,T/C,[1],105 % of control
same,T/C,[2],110 % of control
same,T/C,"dose: 100.0 mg/kg/injection, schedule: Q01DX009 (ip), vehicle: saline",95 % of control
COc1ccc2nc3cc(Cl)ccc3c(NCCCN3CCCC3)c2n1,T/C,"dose: 12.5 mg/kg/injection, schedule: Q01DX009 (ip), vehicle: water",102 % of control
same,T/C,"dose: 25.0 mg/kg/injection, schedule: Q01DX009 (ip), vehicle: water",102 % of control
Cc1c2occc2cc2c1oc(=O)c1cnccc12,T/C,[6],105 % of control
same,T/C,[7],100 % of control
same,T/C,[8],98 % of control
CCOC(=O)C(CC(C)/C=N\Nc1ccccc1)(NC(C)=O)C(=O)OCC (centres undefined),T/C,"dose: 100.0 mg/kg/injection, schedule: Q01DX001 (ip), vehicle: Klucel (hydroxypropylcellulose) (HPC)",95 % of control
same,T/C,"dose: 200.0 mg/kg/injection, schedule: Q01DX001 (ip), vehicle: Klucel (hydroxypropylcellulose) (HPC)",93 % of control
same,T/C,"dose: 400.0 mg/kg/injection, schedule: Q01DX001 (ip), vehicle: Klucel (hydroxypropylcellulose) (HPC)",99 % of control
CC(C)(O)C#CC(F)(F)C(F)(F)C(F)(F)C(F)(F)C(F)(F)C(F)(F)F,T/C,[9],107 % of control
same,T/C,[10],105 % of control
same,T/C,[11],103 % of control
CCOC(=O)NP1(=O)NCc2ccccc2CN1,T/C,[4],103 % of control
same,T/C,[5],99 % of control
same,T/C,[12],90 % of control
COc1ccc2c(c1)CCn1c(C)c(COC(=O)NC(C)C)c(COC(=O)NC(C)C)c1-2,T/C,"dose: 12.5 mg/kg/injection, schedule: Q01DX009 (ip), vehicle: distilled water + Tween-80",153 % of control and 160 % of control
same,T/C,"dose: 25.0 mg/kg/injection, schedule: Q01DX009 (ip), vehicle: distilled water + Tween-80",153 % of control and 164 % of control
COCCN1C(N)=C(C#N)N=C2CCCC(N=C(C#N)C#N)=C21,T/C,[4],100 % of control
same,T/C,[5],107 % of control
same,T/C,[12],101 % of control
CCCCNC(=O)C(C)OC(=O)C(CC)CCCC (centres undefined),T/C,[13],105 % of control
same,T/C,[6],100 % of control
same,T/C,[7],102 % of control
same,T/C,[8],105 % of control
C=CCOC(=O)CCl,T/C,"dose: 25.0 mg/kg/injection, schedule: Q04DX003 (ip), vehicle: Klucel (hydroxypropylcellulose) (HPC)",99 % of control
same,T/C,"dose: 50.0 mg/kg/injection, schedule: Q04DX003 (ip), vehicle: Klucel (hydroxypropylcellulose) (HPC)",98 % of control
same,T/C,"dose: 100.0 mg/kg/injection, schedule: Q04DX003 (ip), vehicle: Klucel (hydroxypropylcellulose) (HPC)",93 % of control and 96 % of control
Clc1ccc2c(c1)C(c1ccccc1Cl)=NCC(SCCN1CCOCC1)=N2,T/C,[9],107 % of control
same,T/C,[10],101 % of control
same,T/C,[11],112 % of control
Cc1ccc(-n2c(C)nc3[nH]cc(C)c3c2=N)cc1,T/C,"dose: 6.25 mg/kg/injection, schedule: Q01DX005 (ip), vehicle: Klucel (hydroxypropylcellulose) (HPC)",101 % of control
same,T/C,"dose: 12.5 mg/kg/injection, schedule: Q01DX005 (ip), vehicle: Klucel (hydroxypropylcellulose) (HPC)",99 % of control
same,T/C,[13],99 % of control
CCC(=O)NN1C(=O)c2ccccc2C1=O,T/C,[14],103 % of control
same,T/C,[15],104 % of control
same,T/C,[16],99 % of control
CC[n+]1ccc(C(=O)NN)cc1,T/C,"dose: 12.5 mg/kg/injection, schedule: Q04DX002 (ip), vehicle: saline with Tween-80",97 % of control
same,T/C,"dose: 25.0 mg/kg/injection, schedule: Q04DX002 (ip), vehicle: saline with Tween-80",99 % of control
same,T/C,"dose: 50.0 mg/kg/injection, schedule: Q04DX002 (ip), vehicle: saline with Tween-80",105 % of control
NC1CCOC1=O (centres undefined),T/C,"dose: 50.0 mg/kg/injection, schedule: Q01DX005 (ip), vehicle: saline",100 % of control
same,T/C,"dose: 100.0 mg/kg/injection, schedule: Q01DX005 (ip), vehicle: saline",103 % of control
same,T/C,"dose: 200.0 mg/kg/injection, schedule: Q01DX005 (ip), vehicle: saline",100 % of control
Nc1nc2ccc(CNc3ccc(C(=O)NC(CCC(=O)O)C(=O)O)cc3)nc2c(=O)[nH]1 (centres undefined),T/C,"dose: 50.0 mg/kg/injection, schedule: Q04DX003 (ip), vehicle: saline with Tween-80",102 % of control
same,T/C,[3],155 % of control
FC(F)(F)COc1ccc(-c2nnc(-c3ccc(OCC(F)(F)F)cc3)o2)cc1,T/C,"dose: 100.0 mg/kg/injection, schedule: Q04DX002 (ip), vehicle: saline with Tween-80",90 % of control
same,T/C,"dose: 200.0 mg/kg/injection, schedule: Q04DX002 (ip), vehicle: saline with Tween-80",87 % of control
same,T/C,"dose: 400.0 mg/kg/injection, schedule: Q04DX002 (ip), vehicle: saline with Tween-80",86 % of control
C=C1C(=O)OC2C1C(OC(=O)C(C)CC)CC1(O)COC3(O)C1C2C1(C)OC13 (centres undefined),T/C,"dose: 6.25 mg/kg/injection, schedule: Q01DX001 (ip), vehicle: Klucel (hydroxypropylcellulose) (HPC)",106 % of control
same,T/C,"dose: 12.5 mg/kg/injection, schedule: Q01DX001 (ip), vehicle: Klucel (hydroxypropylcellulose) (HPC)",108 % of control
same,T/C,"dose: 25.0 mg/kg/injection, schedule: Q01DX001 (ip), vehicle: Klucel (hydroxypropylcellulose) (HPC)",117 % of control and 90 % of control
C=C=COC,T/C,[9],93 % of control
same,T/C,[10],95 % of control
same,T/C,[11],95 % of control
CCOC(CCC1(C)C(=O)CCC1=O)(OCC)OCC,T/C,[14],106 % of control
same,T/C,[15],106 % of control
same,T/C,[16],99 % of control
Nc1nc(N)nc(-c2cccc(Cl)c2)n1,T/C,[14],100 % of control
same,T/C,[15],98 % of control
same,T/C,[16],100 % of control
O=C(O)/C(=N/NC(=O)c1ccccc1)c1ccccc1,T/C,"dose: 100.0 mg/kg/injection, schedule: Q04DX002 (ip), vehicle: Klucel (hydroxypropylcellulose) (HPC)",98 % of control
same,T/C,"dose: 200.0 mg/kg/injection, schedule: Q04DX002 (ip), vehicle: Klucel (hydroxypropylcellulose) (HPC)",98 % of control
same,T/C,"dose: 400.0 mg/kg/injection, schedule: Q04DX002 (ip), vehicle: Klucel (hydroxypropylcellulose) (HPC)",92 % of control
COc1cc(C2c3cc4c(cc3OC(C)(O)C2C(C)=O)OCO4)cc(OC)c1OC (centres undefined),T/C,[14],87 % of control
same,T/C,[15],94 % of control
same,T/C,[16],100 % of control
